The MIC is the least concentration at which growth counts as inhibited. A low value points to a more susceptible organism.

Our source for the MIC values is patent US20130096119A1, “Isoquinolin-3-Ylurea Derivatives” (priority 2010, published 2013).

The assay deals with S. pneumoniae ATCC 49619. Nature of the assay: Minimal inhibitory concentration (MIC) by microdilution method (CLSI M7-A7). To be noted: Streptococcus pneumoniae, ATCC49619, cation-adjusted Mueller-Hinton Broth supplemented with 3% (v/v) lysed horse blood. The assay is classed as cell-based, Streptococcus pneumoniae. The essentials:
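For S. pneumoniae, cation-adjusted Mueller-Hinton broth carried 3% (v/v) lysed horse blood; MICs (mg/l) were read by CLSI M7-A7 microdilution.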
A general note: Dilution methods test growth across graded concentrations, often in twofold steps.

Converted amounts (≈) assume the structure as drawn.

`CCNC(=O)Nc1cc2c(-c3ccncn3)ccc(Nc3ccc(C)nc3)c2cn1` [Example 287, 1-ethyl-3-[8-(6-methyl-pyridin-3-ylamino)-5-pyrimidin-4-yl-isoquinolin-3-yl]-urea] showed an MIC of 0.25 µg/mL (≈ 0.626 µM). `CCNC(=O)Nc1cc2c(-c3ccncc3)ccc(Nc3cccnc3)c2cn1` [Example 227, 1-ethyl-3-[5-pyridin-4-yl-8-(pyridin-3-ylamino)-isoquinolin-3-yl]-urea] had an MIC of 0.125 µg/mL (≈ 0.325 µM). To `CCNC(=O)Nc1cc2cc(-c3ccccc3NC(C)=O)cc(C)c2cn1` [Example 86, N-{2-[3-(3-ethyl-ureido)-8-methyl-isoquinolin-6-yl]-phenyl}-acetamide] belongs 16 µg/mL (≈ 44.1 µM); to `CCNC(=O)Nc1cc2c(-c3ccc(CO)cc3)ccc(Oc3cccnc3)c2cn1` [Example 221, 1-ethyl-3-[5-(4-hydroxymethyl-phenyl)-8-(pyridin-3-yloxy)-isoquinolin-3-yl]-urea], 0.5 µg/mL (≈ 1.21 µM); to `CCNC(=O)Nc1cc2cccc(Nc3ncccn3)c2cn1` [Example 152, 1-ethyl-3-[8-(pyrimidin-2-ylamino)-isoquinolin-3-yl]-urea], 4 µg/mL (≈ 13 µM). `CCNC(=O)Nc1cc2cc(-c3cncnc3C(C)C)cc(C)c2cn1` [Example 95, 1-ethyl-3-[6-(4-isopropyl-pyrimidin-5-yl)-8-methyl-isoquinolin-3-yl]-urea] had an MIC of 16 µg/mL (≈ 45.8 µM). Take `CCNC(=O)Nc1cc2c(CNC)ccc(Nc3cccc(C(=O)O)c3)c2cn1` [Example 272, 3-{[3-(3-ethyl-ureido)-5-[(methylamino)methyl]-isoquinolin-8-yl]amino}-benzoic acid]: the MIC was determined as 8 µg/mL (≈ 20.3 µM). With `CCNC(=O)Nc1cc2cc(NC(=O)c3ccc(N(C)C)cc3)cc(C)c2cn1` [Example 121, 4-dimethylamino-N-[3-(3-ethyl-ureido)-8-methyl-isoquinolin-6-yl]-benzamide], the MIC came out at 0.25 µg/mL (≈ 0.639 µM). For the molecule `CCNC(=O)Nc1cc2c(-c3c[nH]cn3)ccc(C)c2cn1.Cl` [Example 280, 1-ethyl-3-[5-(1H-imidazol-4-yl)-8-methyl-isoquinolin-3-yl]urea hydrochloride], the lowest concentration to inhibit growth (MIC) was 1 µg/mL. Against the preceding molecule, the MIC is about 4-fold higher. The molecule `CCNC(=O)Nc1cc2cc(-c3cncnc3)cc(C)c2cn1` [Example 75, 1-ethyl-3-(8-methyl-6-pyrimidin-5-yl-isoquinolin-3-yl)-urea] had an MIC of 4 µg/mL (≈ 13 µM). The result for `CCNC(=O)Nc1cc2c(-c3ccncc3)ccc(-c3ccncc3)c2cn1` [Example 72, 1-(5,8-di-pyridin-4-yl-isoquinolin-3-yl)-3-ethyl-urea] reads 2 µg/mL (≈ 5.41 µM); that for `CCNC(=O)Nc1cc2cccc(Cn3ccnc3)c2cn1` [Example 299, 1-ethyl-3-(8-imidazol-1-ylmethyl-isoquinolin-3-yl)-urea], 4 µg/mL (≈ 13.5 µM). In turn, `CCNC(=O)Nc1cc2cc(-c3cncc4ccccc34)cc(C)c2cn1` [Example 91, 1-ethyl-3-(8′-methyl-[4,6′]biisoquinolinyl-3′-yl)-urea] had an MIC of 2 µg/mL (≈ 5.61 µM). To `CCNC(=O)Nc1cc2cccc(Nc3ccc(O)cc3)c2cn1` [Example 175, 1-ethyl-3-[8-(4-hydroxy-phenylamino)-isoquinolin-3-yl]-urea] belongs 16 µg/mL (≈ 49.6 µM); to `CCNC(=O)Nc1cc2cccc(Nc3cc(F)ccn3)c2cn1.Cl` [Example 158, 1-ethyl-3-[8-(4-fluoro-pyridin-2-ylamino)-isoquinolin-3-yl]-urea hydrochloride], 2 µg/mL; to `CCNC(=O)Nc1cc2cccc(Nc3cccc(CC(N)=O)c3)c2cn1.Cl` [Example 255, 2-{3-[3-(3-ethyl-ureido)-isoquinolin-8-ylamino]-phenyl}-acetamide hydrochloride], 4 µg/mL.

Take `CCNC(=O)Nc1cc2cccc(Nc3cccc(CC(=O)O)c3)c2cn1` [Example 209, {3-[3-(3-ethyl-ureido)-isoquinolin-8-ylamino]-phenyl}-acetic acid]: the MIC was 4 µg/mL (≈ 11 µM). In turn, `CCNC(=O)Nc1cc2cccc(NCc3cccnc3)c2cn1` [Example 71, 1-ethyl-3-{8-[(pyridin-3-ylmethyl)-amino]-isoquinolin-3-yl}-urea] had an MIC of 16 µg/mL (≈ 49.8 µM).
